This is an account of results in article PMC3602653, “The brain slice method for studying drug distribution in the CNS” (Fluids and Barriers of the CNS, 2013).

SMILES strings stand for the structures.

Data set [1] can be described thus: Brain slice method, unbound volume of distribution in the brain (mouse). The note with it: NMRI mouse brain slices, 5 h incubation at 37°C; mean (standard deviation).
Text: (§1) Drug-naïve male Sprague–Dawley 250–300 g rats and Naval Medical Research Institute (NMRI) 25–30 g mice were used (Taconic, Lille Skensved, Denmark).
(§2) The composition of artificial cerebrospinal fluid or extracellular fluid (aECF) is crucial. […] Ascorbic acid is used as a natural free-radical scavenger to protect the cell membranes from lipid peroxidation and the brain slices from swelling [21].
(§3) When deciding on the compounds of each cassette, the pKa values of the compounds should be taken into account. Because high concentrations of weak bases can increase the pH of the acidic intracellular compartments, the extent of lysosomal trapping of a weak base could be affected by the existence of another weak base. […] Consequently, it is recommended that the final aECF concentration of each studied compound in the cassette should be 100–200 nM and the total concentration of the studied compounds should not exceed 1 μM [18].
(§4) Drug-naïve rats/mice are anesthetized with inhalation anesthesia using 5% isoflurane. When deep anesthesia is reached, up to 10 ml of blood (rats) is collected intracardially. The animal is then decapitated and the skull quickly opened. The isolated brain is immediately placed into blank ice-cold aECF saturated with oxygen. In our experience, the brains should be sliced within 15–20 minutes of harvesting to retain their viability.
(§5) After discarding the first one or two brain slices, 6 (rat brain) or 10 (mouse brain) consecutive 300 μm brain slices are cut on a coronal plane, starting approximately 1.7 mm anterior to the bregma (rostral striatum).
(§6) The incubation-equilibration process is started by gently transferring the 6 (rat) or 10 (mouse) brain slices from the storage beaker (using a micro double-ended spatula) into one 45 mm high, 80 mm diameter, flat-bottomed glass beaker (Duran Group, VWR, Sweden) containing 15 ml (rat) or 10 ml (mouse) of the aECF containing the selection of drugs to be investigated (Figure 1C). The beaker is then filled with humidified 100% oxygen over the aECF and covered with a custom-fabricated lid (Figure 1D) composed of a Teflon fluorinated ethylene-propylene (FEP) film (50 Å, 12.7 μm thick; DuPont, Katco Ltd, UK) as designed by Potter and DeMarse with minor modifications [23]. A “blank” beaker is also incubated in parallel to check stability of the compounds added into the buffer.
(§7) Finally, the beaker is placed inside the small plastic box in the incubated shaker (e.g. MaxQ4450 Thermo Fisher Scientific, NinoLab, Sweden) for 5 h at 37°C (Figure 1E). Control of the temperature by an external thermometer is recommended. A rotation speed of 45 rpm and oxygen flow of about 75–80 ml per minute through a glass frit apparatus appear sufficient.
(§8) Since the unbound drug concentration in the brain slice interstitial fluid at equilibrium is taken to be equal to the drug concentration in the aECF in the beaker, the presence of any minor debris from the brain tissue should be avoided in the sampled aECF after the 5 h incubation. To achieve this, the beaker needs to sit still for 5 minutes after finishing the incubation before sampling the aECF.
Data set [2] in a line: Brain slice method, unbound volume of distribution in the brain (rat). It is filed as in vitro ADME. The note with it: SD rat brain slices, 5 h incubation at 37°C; mean (standard deviation).
Text: as §1, §2, §3, §4, §5, §6, §7, §8
The conditions of data set [3]: cited from earlier work.
The conditions of data set [4]: cited from earlier work. This is another data set of the same source.
Data set [5] can be described thus: Unbound brain-to-plasma concentration ratio (Kp,uu,brain), BBB net flux, from Kp,brain, Vu,brain and fu,plasma. The note with it: Kp,brain corrected for brain tissue uptake (Vu,brain from brain slice method) and plasma protein binding (fu,plasma). An excerpt: It has been proposed by Fridén et al. that in vitro determination of Vu,brain in combination with in vivo determination of the total brain-to-plasma concentration ratio (Kp,brain) and in vitro determination of the fraction of unbound drug in plasma (fu,plasma) would allow rapid evaluation of unbound brain-to-plasma concentration ratio (Kp,uu,brain) (Figure 2). Moreover, combining Vu,brain with fu,brain would allow estimation of the unbound intracellular-to-extracellular concentration ratio (Kp,uu,cell). It is essential to emphasize that, in terms of predicting Cu,brainISF or Kp,uu,brain, rank ordering of compounds with respect to Vu,brain is futile, since there is no causal relationship.
Complex evaluation of the abovementioned neuropharmacokinetic parameters gives insight to drug distribution in the brain. For instance, analogue of γ-aminobutyric acid gabapentin has Kp,brain equal to 0.64 [26]. However, after correction of Kp,brain for brain tissue uptake (using Vu,brain derived from the brain slice method) and plasma protein binding (using fu,plasma) the BBB net flux was estimated as a 0.14 meaning that only 14% of unbound drug in plasma is passing the BBB. Moreover, after passing BBB gabapentin (substrate to the large neutral amino acid transporter) tends to accumulate in the cells as it could be judged from Kp,uu,cell equal to 4.55 [6].

As for `CC(=O)O[C@@]12CO[C@@H]1C[C@H](O)[C@@]1(C)C(=O)[C@H](O)C3=C(C)[C@@H](OC(=O)[C@H](O)[C@@H](NC(=O)OC(C)(C)C)c4ccccc4)C[C@@](O)([C@@H](OC(=O)c4ccccc4)[C@H]21)C3(C)C` [Docetaxel], the “Vu,brain” value in data set [1] is on record as 796 (177) ml·g brain^-1; in data set [2] it was 777 (217) ml·g brain^-1.

On to `NCC1(CC(=O)O)CCCCC1` [Gabapentin], for which the “Kp,uu,cell (unbound intracellular-to-extracellular concentration ratio)” value in data set [3] is recorded as 4.55. Also, the “Vu,brain” value in data set [1] is 4.22 (0.93) ml·g brain^-1; in data set [2], 4.49 (0.29) ml·g brain^-1. The “Kp,brain (total brain-to-plasma concentration ratio)” value in data set [4] was 0.64. The Kp uu in data set [5] turned out to be 0.14.

For the molecule `COc1ccc2c(c1)c(CC(=O)O)c(C)n2C(=O)c1ccc(Cl)cc1` [Indomethacin], the “Vu,brain” value in data set [1] is reported as 12.0 (1.8) ml·g brain^-1; in data set [2] it was 14.1 (1.8) ml·g brain^-1.

Regarding `Fc1ccc([C@@H]2CCNC[C@H]2COc2ccc3c(c2)OCO3)cc1` [Paroxetine], the “Vu,brain” value in data set [1] was 596 (97) ml·g brain^-1; in data set [2], 714 (72) ml·g brain^-1.

Consider `CSc1ccc2c(c1)N(CCC1CCCCN1C)c1ccccc1S2` (stereo not shown) [Thioridazine], for which the results for the “Vu,brain” value in data set [1] and in data set [2] were 1930 (170) ml·g brain^-1 and 2650 (232) ml·g brain^-1, respectively.
